The values that follow come from patent publication US20240109917A1 (ACTELION PHARMACEUTICALS LTD, priority 2020, published 2024).

The structures appear in SMILES notation.

A word on the IC50: it is the concentration that gives 50% inhibition.

The target of one assay is PDGFRβ (Rattus norvegicus (Rat), UniProt Q05030). The assay is described as follows: PDGFRβ Cellular Assay (PDGFRb P-Y751 HTRF in A10 cells stimulated with PDGF-BB). The assay is classed as cell-based. To be noted: read-out: PDGFR Cellular IC50. The method, boiled down:
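Phospho-Y751 PDGFRβ was measured by HTRF in lysates of A10 rat cells. Cells received compound for 3 hours before PDGF-BB stimulation (100 ng/mL working stock).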
Background: TR-FRET usually uses a lanthanide donor and a delayed reading to cut background.

Assay [1] addresses Tb-labeled inactive PDGFRβ (Homo sapiens (Human), UniProt P09619). Nature of the assay: PDGFRβ LanthaScreen Assay. The assay is classed as binding. To be noted: read-out: PDGFR Lantha IC50.
A further assay deals with VEGFR2, unphosphorylated (Homo sapiens (Human), UniProt P35968). Nature of the assay: VEGFR ADP GLO Assay. Type of assay: biochemical. (In ADP-Glo the light output rises with the ADP produced.)
VEGFR2, unphosphorylated, sequence (P35968 20-1356): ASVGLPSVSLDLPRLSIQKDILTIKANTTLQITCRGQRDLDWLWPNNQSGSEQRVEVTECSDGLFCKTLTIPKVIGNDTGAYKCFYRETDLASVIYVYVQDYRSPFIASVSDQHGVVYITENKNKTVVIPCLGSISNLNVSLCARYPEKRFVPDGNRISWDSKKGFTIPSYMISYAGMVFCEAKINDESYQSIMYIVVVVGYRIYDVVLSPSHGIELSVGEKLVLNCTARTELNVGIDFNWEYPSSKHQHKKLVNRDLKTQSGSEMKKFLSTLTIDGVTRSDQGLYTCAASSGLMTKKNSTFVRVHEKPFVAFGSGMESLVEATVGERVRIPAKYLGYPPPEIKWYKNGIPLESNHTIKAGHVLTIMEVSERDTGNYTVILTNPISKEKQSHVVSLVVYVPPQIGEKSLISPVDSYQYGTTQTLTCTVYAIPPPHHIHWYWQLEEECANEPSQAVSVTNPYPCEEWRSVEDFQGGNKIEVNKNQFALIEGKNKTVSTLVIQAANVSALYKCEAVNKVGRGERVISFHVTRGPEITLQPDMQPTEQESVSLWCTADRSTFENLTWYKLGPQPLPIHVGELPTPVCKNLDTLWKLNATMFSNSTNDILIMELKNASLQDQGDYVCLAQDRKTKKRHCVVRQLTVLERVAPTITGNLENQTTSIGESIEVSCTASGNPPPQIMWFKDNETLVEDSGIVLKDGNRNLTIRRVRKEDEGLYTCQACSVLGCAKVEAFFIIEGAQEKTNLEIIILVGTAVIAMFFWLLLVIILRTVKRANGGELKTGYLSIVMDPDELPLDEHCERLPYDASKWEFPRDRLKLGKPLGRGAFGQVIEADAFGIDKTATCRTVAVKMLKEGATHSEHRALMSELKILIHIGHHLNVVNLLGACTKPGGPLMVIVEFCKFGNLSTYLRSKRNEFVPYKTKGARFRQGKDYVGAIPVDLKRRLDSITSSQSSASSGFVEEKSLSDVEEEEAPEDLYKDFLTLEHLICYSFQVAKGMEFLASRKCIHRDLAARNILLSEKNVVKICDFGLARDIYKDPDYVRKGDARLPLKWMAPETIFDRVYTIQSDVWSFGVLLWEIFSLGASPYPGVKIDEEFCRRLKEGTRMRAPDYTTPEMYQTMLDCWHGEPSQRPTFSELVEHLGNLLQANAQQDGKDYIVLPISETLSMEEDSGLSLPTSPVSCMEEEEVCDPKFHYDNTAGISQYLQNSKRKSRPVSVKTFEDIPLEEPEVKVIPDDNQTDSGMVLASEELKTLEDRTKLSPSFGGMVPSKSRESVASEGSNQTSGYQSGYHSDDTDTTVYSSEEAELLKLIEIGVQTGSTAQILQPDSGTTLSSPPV

PDGFRβ, sequence (Q05030 32-1097): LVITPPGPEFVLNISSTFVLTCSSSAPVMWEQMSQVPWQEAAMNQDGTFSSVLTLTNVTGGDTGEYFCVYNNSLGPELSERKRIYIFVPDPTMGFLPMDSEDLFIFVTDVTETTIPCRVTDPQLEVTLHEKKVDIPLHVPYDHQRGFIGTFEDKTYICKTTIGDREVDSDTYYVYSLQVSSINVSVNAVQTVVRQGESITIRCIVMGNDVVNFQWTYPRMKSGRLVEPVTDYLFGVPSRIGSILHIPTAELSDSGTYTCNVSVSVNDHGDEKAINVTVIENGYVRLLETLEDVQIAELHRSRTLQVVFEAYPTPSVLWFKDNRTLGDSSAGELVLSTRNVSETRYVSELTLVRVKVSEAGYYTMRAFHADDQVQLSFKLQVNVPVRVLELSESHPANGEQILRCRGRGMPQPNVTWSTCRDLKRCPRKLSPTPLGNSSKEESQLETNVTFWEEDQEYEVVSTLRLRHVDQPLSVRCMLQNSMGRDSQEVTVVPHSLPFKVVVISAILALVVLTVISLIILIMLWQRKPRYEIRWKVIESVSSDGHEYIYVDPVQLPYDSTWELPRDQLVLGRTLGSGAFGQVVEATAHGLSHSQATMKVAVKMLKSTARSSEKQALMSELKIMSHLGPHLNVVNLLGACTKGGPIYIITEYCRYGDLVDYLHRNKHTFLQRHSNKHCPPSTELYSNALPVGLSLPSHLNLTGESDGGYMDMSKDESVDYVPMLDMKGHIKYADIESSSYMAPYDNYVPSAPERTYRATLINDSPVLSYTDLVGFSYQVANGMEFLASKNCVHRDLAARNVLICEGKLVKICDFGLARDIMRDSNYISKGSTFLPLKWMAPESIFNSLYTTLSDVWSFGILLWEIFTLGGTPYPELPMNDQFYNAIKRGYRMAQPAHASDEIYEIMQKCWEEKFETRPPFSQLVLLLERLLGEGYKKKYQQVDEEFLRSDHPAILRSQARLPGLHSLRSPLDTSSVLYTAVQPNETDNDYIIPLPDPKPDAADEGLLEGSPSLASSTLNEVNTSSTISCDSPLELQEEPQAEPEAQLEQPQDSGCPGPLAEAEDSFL
Tb-labeled inactive PDGFRβ, sequence (P09619 33-1106): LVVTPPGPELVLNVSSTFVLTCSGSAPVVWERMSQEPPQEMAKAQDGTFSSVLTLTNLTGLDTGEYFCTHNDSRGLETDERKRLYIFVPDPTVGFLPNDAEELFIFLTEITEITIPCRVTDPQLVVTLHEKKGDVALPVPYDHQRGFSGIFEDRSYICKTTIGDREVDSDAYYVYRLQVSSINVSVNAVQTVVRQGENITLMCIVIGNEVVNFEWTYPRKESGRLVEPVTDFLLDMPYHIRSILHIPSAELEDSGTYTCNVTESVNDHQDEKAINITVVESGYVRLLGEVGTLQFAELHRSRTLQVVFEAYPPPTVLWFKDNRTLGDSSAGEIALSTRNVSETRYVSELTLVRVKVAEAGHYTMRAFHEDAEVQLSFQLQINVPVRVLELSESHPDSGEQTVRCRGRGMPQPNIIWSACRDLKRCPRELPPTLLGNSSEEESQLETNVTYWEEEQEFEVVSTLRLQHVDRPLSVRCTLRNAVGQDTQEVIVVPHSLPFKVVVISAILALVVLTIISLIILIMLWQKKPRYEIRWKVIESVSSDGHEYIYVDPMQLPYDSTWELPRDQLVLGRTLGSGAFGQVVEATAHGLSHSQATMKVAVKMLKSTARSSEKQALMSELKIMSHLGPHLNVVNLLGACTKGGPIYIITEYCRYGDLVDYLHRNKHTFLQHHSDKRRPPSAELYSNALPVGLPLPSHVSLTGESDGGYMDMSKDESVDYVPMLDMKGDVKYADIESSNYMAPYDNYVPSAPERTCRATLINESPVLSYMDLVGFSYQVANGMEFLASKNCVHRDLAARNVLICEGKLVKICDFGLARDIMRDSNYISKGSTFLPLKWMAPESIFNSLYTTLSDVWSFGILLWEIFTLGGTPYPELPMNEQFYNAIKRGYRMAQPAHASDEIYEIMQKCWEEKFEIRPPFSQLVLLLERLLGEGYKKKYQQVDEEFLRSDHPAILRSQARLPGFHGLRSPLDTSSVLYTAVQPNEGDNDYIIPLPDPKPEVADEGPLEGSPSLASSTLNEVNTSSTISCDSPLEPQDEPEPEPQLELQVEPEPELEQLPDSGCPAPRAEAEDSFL

With `Cc1ncc(NC(=O)CNCC(C)C)cc1NC(=O)c1cnn2cc(-c3cnn4c3CCC4)sc12` [Example 493, 2-(5,6-dihydro-4H-pyrrolo[1,2-b]pyrazol-3-yl)-N-(5-(2-(isobutylamino)acetamido)-2-methylpyridin-3-yl)pyrazolo[5,1-b]thiazole-7-carboxamide], the IC50 is 7 nM at PDGFRβ; 1.9 nM in assay [1]; more than 7500 nM against VEGFR2, unphosphorylated.

Regarding `Cc1ncc(NC(=O)CNC2CCC2)cc1NC(=O)c1cnn2cc(-c3cnn4c3OCCC4)sc12` [Example 494, N-(5-(2-(cyclobutylamino)acetamido)-2-methylpyridin-3-yl)-2-(6,7-dihydro-5H-pyrazolo[5,1-b][1,3]oxazin-3-yl)pyrazolo[5,1-b]thiazole-7-carboxamide], the IC50 was 9.6 nM at PDGFRβ; 3.9 nM in assay [1]; more than 7500 nM against VEGFR2, unphosphorylated.

Take `Cc1ncc(NC(=O)CNC2(C)CCC2)cc1NC(=O)c1cnn2cc(-c3cnn4c3OCCC4)sc12` [Example 495, 2-(6,7-dihydro-5H-pyrazolo[5,1-b][1,3]oxazin-3-yl)-N-(2-methyl-5-(2-((1-methylcyclobutyl)amino)acetamido)pyridin-3-yl)pyrazolo[5,1-b]thiazole-7-carboxamide]: the IC50 on PDGFRβ is 3.8 nM; in assay [1], 2.5 nM; against VEGFR2, unphosphorylated it was more than 7500 nM.

For the compound `Cc1ncc(NC(=O)OC[C@@H]2CCCN2C)cc1NC(=O)c1cnn2cc(-c3cn(C)nc3C)sc12` [Example 496, (S)-(1-methylpyrrolidin-2-yl)methyl (5-(2-(1,3-dimethyl-1H-pyrazol-4-yl)pyrazolo[5,1-b]thiazole-7-carboxamido)-6-methylpyridin-3-yl)carbamate], the IC50 was 5.6 nM at PDGFRβ; 2.8 nM in assay [1]; more than 7500 nM on VEGFR2, unphosphorylated.
